pIC50, pKi: −log10 of the molar value.
Columns and labels:
ICE Caspase-1 = biological target: T1, ICE Caspase-1 (Homo sapiens, UniProt P29466); experiment: ICE (Caspase-1) enzyme inhibition assay, Ki; assay type: biochemical; details: in vitro enzyme assay
T1 sequence (P29466 120-297 limits assumed): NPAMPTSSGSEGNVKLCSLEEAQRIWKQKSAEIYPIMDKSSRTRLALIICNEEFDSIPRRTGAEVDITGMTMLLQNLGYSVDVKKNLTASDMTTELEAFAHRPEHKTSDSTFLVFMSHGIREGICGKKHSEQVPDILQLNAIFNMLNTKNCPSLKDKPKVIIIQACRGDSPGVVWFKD
T1 sequence (P29466 317-404 limits assumed): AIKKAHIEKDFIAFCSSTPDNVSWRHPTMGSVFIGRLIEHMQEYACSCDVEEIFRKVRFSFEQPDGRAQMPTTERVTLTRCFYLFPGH
Protocol: This assay is run using an Succinyl-Tyr-Val-Ala-Asp-p-Nitroanilide substrate. Synthesis of analogous substrates is described by L. A. Reiter (Int. J. Peptide Protein Res., 43, pp. 87-96 (1994)). The assay mixture contains:
The visible ICE assay is run in a 96-well microtiter plate. Buffer, ICE and DMSO (if inhibitor is present) are added to the wells in the order listed. The components are left to incubate at room temperature for 15 minutes starting at the time that all components are present in all wells. The microtiter plate reader is set to incubate at 37° C. After the 15 minute incubation, substrate is added directly to the wells and the reaction is monitored by following the release of the chromophore (pNA) at 405-603 nm at 37° C. for 20 minutes. A linear fit of the data is performed and the rate is calculated in mOD/min. DMSO is only present during experiments involving inhibitors, buffer is used to make up the volume to 100 μl in the other experiments.
This assay is run essentially according to Thornberry et al., Nature, 356 pp. 768-774 (1992), using substrate 17 referenced in that article. The substrate is: Acetyl-Tyr-Val-Ala-Asp-amino-4-methylcoumarin (AMC). The following components are mixed:
The assay is run in a 96-well microtiter plate. Buffer and ICE are added to the wells. The components are left to incubate at 37° C. for 15 minutes in a temperature-controlled wellplate. After the 15 minute incubation, the reaction is started by adding substrate directly to the wells and the reaction is monitored at 37° C. for 30 minutes by following the release of the AMC fluorophore using an excitation wavelength for 380 nm and an emission wavelength of 460 nm. A linear fit of the data for each well is performed and a rate is determined in fluorescence units per second.
(§1) For determination of enzyme inhibition constants (Ki) or the mode of inhibition (competitive, uncompetitive or noncompetitive), the rate data determined in the enzyme assays at varying inhibitor concentrations are computer-fit to standard enzyme kinetic equations (see I. H. Segel, Enzyme Kinetics, Wiley-Interscience, 1975).

CPP32 Caspase-3 = biological target: T2, CPP32 Caspase-3 (Homo sapiens, UniProt P42574); experiment: CPP32 (Caspase-3) enzyme inhibition, Ki; assay type: biochemical; details: in vitro enzyme assay
T2 sequence (P42574 29-175 limits assumed): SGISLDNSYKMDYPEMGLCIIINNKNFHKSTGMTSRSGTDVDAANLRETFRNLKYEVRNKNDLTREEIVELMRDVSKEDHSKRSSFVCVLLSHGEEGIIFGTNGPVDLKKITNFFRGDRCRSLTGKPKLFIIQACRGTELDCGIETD
T2 sequence (P42574 176-277 limits assumed): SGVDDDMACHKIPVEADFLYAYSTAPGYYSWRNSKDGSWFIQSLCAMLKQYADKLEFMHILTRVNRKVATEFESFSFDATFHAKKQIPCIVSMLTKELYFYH
Description: (§2) Other assays that may be used to evaluate the compounds of this invention are disclosed in PCT application PCT/US96/20843, published Jun. 26, 1997, under publication no. WO 97/22619, which is incorporated herein by reference. Such assays include in vivo bioavailability determinations, pharmacokinetic studies in the mouse, inhibition of ICE homologs, inhibition of apoptosis, in vivo acute assay for anti-inflammatory efficacy, measurement of blood levels, IGIF assays, mouse carrageenan peritoneal inflammation assay, and type II collagen-induced arthritis.
as §1

Flice Caspase-8 = Flice Caspase-8 (Homo sapiens, UniProt Q14790); experiment: Flice (Caspase-8) enzyme inhibition, Ki; assay type: biochemical; details: in vitro enzyme assay
Sequence of Flice Caspase-8 (Q14790 217-374 limits assumed): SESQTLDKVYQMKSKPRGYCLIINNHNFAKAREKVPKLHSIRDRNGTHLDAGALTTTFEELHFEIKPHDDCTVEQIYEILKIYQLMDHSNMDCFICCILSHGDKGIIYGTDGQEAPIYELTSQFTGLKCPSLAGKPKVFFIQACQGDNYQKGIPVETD
Sequence of Flice Caspase-8 (Q14790 385-479 limits assumed): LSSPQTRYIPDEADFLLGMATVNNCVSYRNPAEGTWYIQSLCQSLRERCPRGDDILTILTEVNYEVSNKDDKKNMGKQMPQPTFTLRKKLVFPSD
Description: as §2, §1

[1] = system: Human Peripheral Blood Mononuclear Cells (PBMC); experiment: PBMC cell assay: IL-1β assay with LPS-stimulated human PBMC; assay type: cell-based; details: mature IL-1β in supernatant, LPS 5 ng/ml, 16-18 hr
Description: IL-1β Assay with a Mixed Population of Human Peripheral Blood Mononuclear Cells (PBMC) or Enriched Adherent Mononuclear Cells
Processing of pre-IL-1β by ICE can be measured in cell culture using a variety of cell sources. Human PBMC obtained from healthy donors provides a mixed population of lymphocyte subtypes and mononuclear cells that produce a spectrum of interleukins and cytokines in response to many classes of physiological stimulators. Adherent mononuclear cells from PBMC provides an enriched source of normal monocytes for selective studies of cytokine production by activated cells.
An initial dilution series of test compound in DMSO or ethanol is prepared, with a subsequent dilution into RPMI-10% FBS media (containing 2 mM L-glutamine, 10 mM HEPES, 50 U and 50 μg/ml pen/strep) respectively to yield drugs at 4×the final test concentration containing 0.4% DMSO or 0.4% ethanol. The final concentration of DMSO is 0.1% for all drug dilutions. A concentration titration which brackets the apparent Ki for a test compound determined in an ICE inhibition assay is generally used for the primary compound screen.
Generally 5-6 compound dilutions are tested and the cellular component of the assay is performed in duplicate, with duplicate ELISA determinations on each cell culture supernatant.
Buffy coat cells isolated from one pint human blood (yielding 40-45 ml final volume plasma plus cells) are diluted with media to 80 ml and LeukoPREP separation tubes (Becton Dickinson) are each overlaid with 10 ml of cell suspension. After 15 min centrifugation at 1500-1800×g, the plasma/media layer is aspirated and then the mononuclear cell layer is collected with a Pasteur pipette and transferred to a 15 ml conical centrifuge tube (Corning). Media is added to bring the volume to 15 ml, gently mix the cells by inversion and centrifuge at 300×g for 15 min. The PBMC pellet is resuspended in a small volume of media, the cells are counted and adjusted to 6×10^6 cells/ml.
For the cellular assay, 1.0 ml of the cell suspension is added to each well of a 24-well flat bottom tissue culture plate (Corning), 0.5 ml test compound dilution and 0.5 ml LPS solution (Sigma #L-3012; 20 ng/ml solution prepared in complete RPMI media; final LPS concentration 5 ng/ml). The 0.5 ml additions of test compound and LPS are usually sufficient to mix the contents of the wells. Three control mixtures are run per experiment, with either LPS alone, solvent vehicle control, and/or additional media to adjust the final culture volume to 2.0 ml. The cell cultures are incubated for 16-18 hr at 37° C. in the presence of 5% CO2.
At the end of the incubation period, cells are harvested and transferred to 15 ml conical centrifuge tubes. After centrifugation for 10 min at 200×g, supernatants are harvested and transferred to 1.5 ml Eppendorf tubes. It may be noted that the cell pellet may be utilized for a biochemical evaluation of pre-IL-1β and/or mature IL-1β content in cytosol extracts by Western blotting or ELISA with pre-IL-1β specific antisera.
PBMC are isolated and prepared as described above. Media (1.0 ml) is first added to wells followed by 0.5 ml of the PBMC suspension. After a one hour incubation, plates are gently shaken and nonadherent cells aspirated from each well. Wells are then gently washed three times with 1.0 ml of media and final resuspended in 1.0 ml media. The enrichment for adherent cells generally yields 2.5-3.0×10^5 cells per well. […]

Human whole blood = experiment: Whole blood assay for IL-1β production; assay type: cell-based; details: LPS 5.0 ng/ml, 16-18 hr at 30° C.
Protocol: The whole blood assay is a simple method for measuring the production of IL-1β (or other cytokines) and the activity of potential inhibitors. The complexity of this assay system, with its full complement of lymphoid and inflammatory cell types, spectrum of plasma proteins and red blood cells is an ideal in vitro representation of human in vivo physiologic conditions.
Human whole blood sample (^˜30-50 cc) 1.5 ml Eppendorf tubes
Set incubator or water bath at 30°C. Aliquot 0.25 ml of blood into 1.5 ml Eppendorf tubes. Note: be Sure to invert the whole blood sample tubes after every two aliquots. Differences in replicates may result if is the cells sediment and are not uniformly suspended. Use of a positive displacement pipette will also minimize differences between replicate aliquots.
Prepare drug dilutions in sterile pyrogen-free saline by serial dilution. A dilution series which brackets the apparent Ki for a test compound determined in an ICE inhibition assay is generally used for the primary compound screen. For extremely hydrophobic compounds, prepare compound dilutions in fresh plasma obtained from the same blood donor or in PBS-containing 5% DMSO to enhance solubility.
Add 25 μl test compound dilution or vehicle control and gently mix the sample. Then add 5.0 μl LPS solution (250 ng/ml stocked prepared fresh: 5.0 ng/ml final concentration LPS), and mix again. Incubate the tubes at […] in a water bath for 16-18 hr with occasional mixing. Alternatively, the tubes can be placed in a rotator set at 4 rpm for the same incubation period. This assay should be set up in duplicate or triplicate with the following controls: negative control—no LPS; positive control—no test inhibitor; vehicle control—the highest concentration of DMSO or compound solvent used in the experiment. Additional saline is added to all control tubes to normalize volumes for both control and experimental whole blood test samples.
After the incubation period, whole blood samples are centrifuged for 10 minutes at ^˜2000 rpm in the microfuge, plasma is transferred to a fresh microfuge tube and centrifuged at 1000×g to pellet residual platelets if necessary. Plasma samples may be stored frozen at −70° C. prior to assay for cytokine levels by ELISA.
R & D Systems (6.14 McKinley Place N.E. Minneapolis, Minn. 55413) Quantikine kits may be used for measurement of IL-1β and TNF-α. The assays are performed according to the manufacturer's directions. IL-1β levels of ^˜1-5 ng/ml in positive controls among a range of individuals may be observed. A 1:200 dilution of plasma for all samples is usually sufficient for experiments for ELISA results to fall on the linear range of the ELISA standard curves. It may be necessary to optimize standard dilutions if you observe differences in the whole blood assay. Nerad, J. L. et al., J. Leukocyte Biol., 52, pp. 687-692 (1992).

CCCN1C(=O)CC[C@H](NC(=O)c2cc(Cl)c(O)c(Cl)c2)C(=O)N1CC(=O)N[C@H](C=O)CC(=O)O [Compound 11c, 3-{2-[6-(3,5-Dichloro-4-hydroxy-benzoylamino)-3,7-dioxo-2-propyl-[1,2]diazepan-1-yl]-acetylamino}-4-oxo-butyric acid]
pKi (ICE Caspase-1): 7.80 | pKi (CPP32 Caspase-3): 4.65 | pKi (Flice Caspase-8): 5.82 | pIC50 [1]: 6.38 | pIC50 (Human whole blood): 5.84

CCCN1C(=O)CC[C@H](NC(=O)c2nccc3ccccc23)C(=O)N1CC(=O)N[C@H](C=O)CC(=O)O [Compound 11b, 3-(2-(6-[(Isoquinoline-1-carbonyl)-amino]-3,7-dioxo-2-propyl-[1,2]diazepan-1-yl)-acetylamino)-4-oxo-butyric acid]
pKi (ICE Caspase-1): 6.92 | pIC50 [1]: 5.82 | pIC50 (Human whole blood): 5.24

O=C[C@H](CC(=O)O)NC(=O)CN1C(=O)[C@@H](NC(=O)c2nccc3ccccc23)CCC(=O)N1Cc1ccccc1 [Compound 11a, 3-(2-{2-Benzyl-6-[(isoquinoline-1-carbonyl)-amino]-3,7-dioxo-[1,2]diazepan-1-yl}-acetylamino)-4-oxo-butyric acid]
pKi (ICE Caspase-1): 7.00 | pIC50 [1]: 5.85 | pIC50 (Human whole blood): 5.14

CS(=O)(=O)N1CCC[C@H](NC(=O)c2cc(Cl)c(O)c(Cl)c2)C(=O)N1CC(=O)N[C@H](C=O)CC(=O)O [Compound 27, 3-{2-[6-(3,5-Dichloro-4-hydroxy-benzoylamino)-2-methanesulfonyl-7-oxo-[1,2]diazepan-1-yl]-acetylamino}-4-oxo-butyric acid]
pKi (ICE Caspase-1): 7.77 | pIC50 [1]: 6.00 | pIC50 (Human whole blood): 5.72

CC(C(=O)N[C@H](C=O)CC(=O)O)N1C(=O)[C@@H](NC(=O)c2cc(Cl)c(O)c(Cl)c2)CCC(=O)N1C (mixture of isomers) [Compound 20, 3-{2-[6-(3,5-Dichloro-4-hydroxy-benzoylamino)-2-methyl-3,7-dioxo-[1,2]diazepan-1-yl]-propionylamino}-4-oxo-butyric acid]
pKi (ICE Caspase-1): 9.05 | pIC50 [1]: 6.27 | pIC50 (Human whole blood): 6.08

From patent US6426413B1, “Inhibitors of caspases” (Vertex Pharmaceuticals Incorporated, priority 1998, dated 2002)
